Activity calls are given as the source filed them. The calls are words filed in the database; no cut-off is given here.
What was measured:
[1] = target: T1, Protein cereblon/Histone-lysine N-methyltransferase NSD2 (Homo sapiens) (UniProt O96028+Q96SW2); assay: PROTAC activity at CRBN/NSD2 in human SEM cells assessed as induction of NSD2 degradation at 2 uM measured upto 24 hrs by immunoblot analysis; type: cell-based
[2] = target: Protein cereblon/Eukaryotic peptide chain release factor GTP-binding subunit ERF3A (Homo sapiens) (UniProt Q96SW2+P15170); assay: PROTAC activity at CRBN/GSPT1 in human SEM cells assessed as decrease in GSPT1 level at 2 uM measured upto 24 hrs by immunoblot analysis; type: cell-based
Chain of Protein cereblon/Eukaryotic peptide chain release factor GTP-binding subunit ERF3A (Homo sapiens) (P15170 whole entry, looked up): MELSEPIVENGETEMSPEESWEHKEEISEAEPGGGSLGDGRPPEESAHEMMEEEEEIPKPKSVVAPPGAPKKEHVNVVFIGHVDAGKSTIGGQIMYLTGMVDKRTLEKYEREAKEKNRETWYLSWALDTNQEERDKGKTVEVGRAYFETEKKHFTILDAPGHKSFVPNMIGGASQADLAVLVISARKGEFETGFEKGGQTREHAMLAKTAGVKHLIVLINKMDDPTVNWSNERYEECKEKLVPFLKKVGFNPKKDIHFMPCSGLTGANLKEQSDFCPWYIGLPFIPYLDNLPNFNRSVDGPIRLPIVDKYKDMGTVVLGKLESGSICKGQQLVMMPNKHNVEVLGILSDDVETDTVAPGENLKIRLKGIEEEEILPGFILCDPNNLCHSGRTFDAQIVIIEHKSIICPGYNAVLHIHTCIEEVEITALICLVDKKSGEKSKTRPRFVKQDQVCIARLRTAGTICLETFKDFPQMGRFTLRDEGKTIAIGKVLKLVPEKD
Chain of Protein cereblon/Eukaryotic peptide chain release factor GTP-binding subunit ERF3A (Homo sapiens) (Q96SW2 whole entry, looked up): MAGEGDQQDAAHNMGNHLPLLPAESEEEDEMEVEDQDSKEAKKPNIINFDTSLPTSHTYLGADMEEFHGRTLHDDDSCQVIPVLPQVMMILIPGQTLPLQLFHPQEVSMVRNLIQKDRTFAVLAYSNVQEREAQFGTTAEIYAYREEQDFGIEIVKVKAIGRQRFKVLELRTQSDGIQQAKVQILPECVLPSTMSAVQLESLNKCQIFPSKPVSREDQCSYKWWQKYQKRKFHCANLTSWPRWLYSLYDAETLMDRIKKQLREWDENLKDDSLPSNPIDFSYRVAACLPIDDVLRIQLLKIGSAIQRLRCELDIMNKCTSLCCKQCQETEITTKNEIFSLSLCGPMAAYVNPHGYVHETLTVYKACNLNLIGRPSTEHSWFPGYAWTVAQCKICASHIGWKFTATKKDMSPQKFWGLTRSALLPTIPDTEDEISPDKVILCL

[3] = target: T1, Protein cereblon/Histone-lysine N-methyltransferase NSD2 (Homo sapiens); assay: PROTAC activity at CRBN/NSD2 in human RPMI 8402 cells assessed as induction of NSD2 degradation at 0.5 to 2 uM measured after 24 hrs by immunoblot analysis; type: cell-based; conditions: dose 0.5-2 µM
[4] = target: T1, Protein cereblon/Histone-lysine N-methyltransferase NSD2 (Homo sapiens); assay: PROTAC activity at CRBN/NSD2 in human SEM cells assessed as induction of NSD2 degradation at 0.5 to 2 uM measured after 24 hrs by immunoblot analysis; type: cell-based; conditions: dose 0.5-2 µM
[5] = target: T1, Protein cereblon/Histone-lysine N-methyltransferase NSD2 (Homo sapiens); assay: PROTAC activity at CRBN/NSD2 in human RPMI 8402 cells assessed as induction of NSD2 degradation at 2 uM measured after 12 to 24 hrs by immunoblot analysis; type: cell-based; conditions: time 12-24 hrs
[6] = target: T1, Protein cereblon/Histone-lysine N-methyltransferase NSD2 (Homo sapiens); assay: PROTAC activity at CRBN/NSD2 in human SEM cells assessed as induction of NSD2 degradation at 2 uM measured after 12 to 24 hrs by immunoblot analysis; type: cell-based; conditions: time 12-24 hrs
[7] = target: T2, Histone-lysine N-methyltransferase NSD2 (Homo sapiens, UniProt O96028); assay: Induction of NSD2 degradation in HEK293FT cells measured after 48 hrs; type: cell-based
T2 sequence (O96028 whole entry): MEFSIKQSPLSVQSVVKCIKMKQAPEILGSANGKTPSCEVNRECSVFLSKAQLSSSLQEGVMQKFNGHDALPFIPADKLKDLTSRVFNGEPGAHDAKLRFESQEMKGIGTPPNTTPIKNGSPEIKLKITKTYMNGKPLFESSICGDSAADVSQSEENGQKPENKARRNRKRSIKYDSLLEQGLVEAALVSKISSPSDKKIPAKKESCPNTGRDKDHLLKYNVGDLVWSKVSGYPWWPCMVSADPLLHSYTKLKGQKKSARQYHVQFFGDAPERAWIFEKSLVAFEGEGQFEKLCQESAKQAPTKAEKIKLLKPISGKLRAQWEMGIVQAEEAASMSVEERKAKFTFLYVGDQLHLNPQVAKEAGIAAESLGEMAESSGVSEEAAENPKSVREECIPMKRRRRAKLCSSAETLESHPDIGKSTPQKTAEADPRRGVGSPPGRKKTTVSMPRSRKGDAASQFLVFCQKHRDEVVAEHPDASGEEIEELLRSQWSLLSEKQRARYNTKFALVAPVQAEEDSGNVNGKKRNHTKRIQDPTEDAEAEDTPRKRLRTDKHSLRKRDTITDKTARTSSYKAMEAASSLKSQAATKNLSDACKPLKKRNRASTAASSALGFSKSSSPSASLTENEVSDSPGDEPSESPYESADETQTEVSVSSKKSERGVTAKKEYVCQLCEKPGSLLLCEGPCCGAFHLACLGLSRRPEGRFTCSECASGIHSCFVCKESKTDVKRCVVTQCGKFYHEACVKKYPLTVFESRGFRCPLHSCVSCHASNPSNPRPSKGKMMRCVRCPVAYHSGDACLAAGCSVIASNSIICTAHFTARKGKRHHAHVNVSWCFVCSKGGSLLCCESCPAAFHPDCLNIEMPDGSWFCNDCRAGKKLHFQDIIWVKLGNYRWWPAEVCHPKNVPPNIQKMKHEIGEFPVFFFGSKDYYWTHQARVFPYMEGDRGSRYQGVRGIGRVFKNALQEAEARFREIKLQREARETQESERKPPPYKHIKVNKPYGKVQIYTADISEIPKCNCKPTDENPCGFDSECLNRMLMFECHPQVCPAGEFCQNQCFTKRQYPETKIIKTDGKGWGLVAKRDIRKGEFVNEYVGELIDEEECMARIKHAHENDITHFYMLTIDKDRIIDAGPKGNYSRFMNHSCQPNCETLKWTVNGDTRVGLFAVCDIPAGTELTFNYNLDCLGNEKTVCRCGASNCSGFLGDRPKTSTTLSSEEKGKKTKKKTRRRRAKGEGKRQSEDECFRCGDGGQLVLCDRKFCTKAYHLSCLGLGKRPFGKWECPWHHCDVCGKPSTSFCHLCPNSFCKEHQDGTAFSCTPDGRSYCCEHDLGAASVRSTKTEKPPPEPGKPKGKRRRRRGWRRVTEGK

RPMI 8402 = assay: Inhibition of colony formation in human RPMI 8402 cells at 2 uM administered every three days for 30 days by iodonitrotetrazolium chloride staining based microscopy analysis; type: functional, cell-based; conditions: time 30.0 day

T1 sequence (Q96SW2 whole entry, looked up, one chain of several): as the sequence (Q96SW2 whole entry, looked up) above

Structure (SMILES)	Activity [1]	Activity [2]	Activity [3]	Activity [4]	Activity [5]	Activity [6]	DC50 [7]	inhibition (RPMI 8402)
CC(C)N(Cc1ccc(C(=O)Nc2ccc(C(=O)NC3CCN(c4ccc5c(c4)C(=O)N(C4CCC(=O)NC4=O)C5=O)CC3)cc2)cc1)C(=O)c1ccc2c(c1)OCC(=O)N2 (stereo unspecified)	inactive	Active	–	–	–	–	–	–
O=C(CNc1cccc2c1C(=O)N(C1CCC(=O)NC1=O)C2=O)NCCCOc1ccc(NC(=O)c2ccc(CN(C(=O)c3ccc4c(c3)OCC(=O)N4)C3CC3)cc2)nc1 (stereo unspecified)	–	–	inactive	inactive	inactive	inactive	5.2 µM	–
NCCCCCCNC(=O)c1ccc(NC(=O)c2ccc(CN(C(=O)c3ccc4c(c3)OCC(=O)N4)C3CC3)cc2)cc1	–	–	inactive	inactive	inactive	inactive	–	–
CN1C(=O)CCC(N2C(=O)c3ccc(N4CCC(NC(=O)c5ccc(NC(=O)c6ccc(CN(C(=O)c7ccc8c(c7)OCC(=O)N8)C7CC7)cc6)cc5)CC4)cc3C2=O)C1=O (stereo unspecified)	–	–	inactive	inactive	inactive	inactive	–	inactive
